US20240417359A1, “PRECURSORS OF PHENOLIC FRAGRANT COMPOUNDS” (GIVAUDAN SA, priority 2021, published 2024)

assay: Odour description on paper blotter; conditions: 1% solution in EtOH on paper blotter, 24 h

Compound | Odour description
1-(dec-1-en-4-yloxy)-2-ethoxy-4-methylbenzene and 2-(dec-1-en-4-yloxy)-1-ethoxy-4-methylbenzene [Example 46] | medicinal, phenolic, vanilla
CCOc1cc(C=O)ccc1OCCC=C(C)CCc1ccc(OC)cc1 [Example 54, 3-ethoxy-4-((6-(4-methoxyphenyl)-4-methylhex-3-en-1-yl)oxy)benzaldehyde] | powdery, vanilla
C=CCC(Oc1ccc(CCC(C)=O)cc1)c1ccccc1 (stereo not shown) [Example 8, 4-(4-((1-phenylbut-3-en-1-yl)oxy)phenyl)butan-2-one] | fruity (powdery, sweet, raspberry)
C=CCC(CCCCCCCCCC)Oc1ccccc1C(=O)CC (stereo not shown) [Example 26, 1-(2-(tetradec-1-en-4-yloxy)phenyl)propan-1-one] | aldehydic, metallic, green, citrus
CCOc1cc(C=O)ccc1OC(C)(C)CC=C=C(C)C [Example 16, 4-((2,6-dimethylhepta-4,5-dien-2-yl)oxy)-3-ethoxybenzaldehyde] | powdery (vanilla)
CCCCCCC(CC=C(C)C)Oc1ccc(C=O)cc1OCC (stereo not shown) [Example 4, 3-ethoxy-4-((2-methylundec-2-en-5-yl)oxy)benzaldehyde] | vanilla (powdery, creamy) dry (dough)
CC(=O)CCc1ccc(OCCC=C(C)CCCc2ccccc2)cc1 [Example 59, 4-(4-((4-methyl-7-phenylhept-3-en-1-yl)oxy)phenyl)butan-2-one] | powdery fruity, raspberry
CCOc1cc(C)ccc1OCCC=C(C)CCC=C(C)CCC=C(C)C [Example 65, 2-ethoxy-4-methyl-1-((4,8,12-trimethyltrideca-3,7,11-trien-1-yl)oxy)benzene] | phenolic (medicinal, ultravanil, balsamic vanilla bean, cough syrup)
CCOc1cc(C=O)ccc1OCCC=C(C)Cc1ccccc1 [Example 50, 3-ethoxy-4-((4-methyl-5-phenylpent-3-en-1-yl)oxy)benzaldehyde] | powdery, vanilla, ice cream
C=CCC(CCCCCCCCCC)Oc1ccc(C=O)cc1OCC (stereo not shown) [Example 27, 3-ethoxy-4-(tetradec-1-en-4-yloxy)benzaldehyde] | powdery, vanilla, aldehydic, metallic, green, citrus, mandarin
CCCCCCC=CC=CCC(CCCCCC)Oc1ccc(CCC(C)=O)cc1 (stereo not shown) [Example 9, 4-(4-((octadeca-9,11-dien-7-yl)oxy)phenyl)butan-2-one] | powdery fruity raspberry
CCOc1cc(C=O)ccc1OCCC=CCCc1ccc(CC(C)C)cc1 [Example 86, 3-ethoxy-4-((6-(4-isobutylphenyl)hex-3-en-1-yl)oxy)benzaldehyde] | powdery, vanilla, creamy, floral, muguet
CCCCCCC(CC=CCC(CCCCCC)Oc1ccc(CCC(C)=O)cc1)Oc1ccc(CCC(C)=O)cc1 (stereo not shown) [Example 10, 4,4′-((octadec-9-ene-7,12-diylbis(oxy))bis(4,1-phenylene))bis(butan-2-one)] | powdery fruity raspberry
C=CCC(CCCCCC)Oc1ccc(CCC(C)=O)cc1 (stereo not shown) [Example 23, 4-(4-(dec-1-en-4-yloxy)phenyl)butan-2-one] | fruity (raspberry, gourmand) sugary
CC=CCC(C)(Cc1ccccc1)Oc1ccc(C=O)cc1OCC (stereo not shown) [Example 21, 3-ethoxy-4-((2-methyl-1-phenylhex-4-en-2-yl)oxy)benzaldehyde] | powdery (vanilla) creamy (milky)
C=CCC(CCCCCCCCCC)Oc1ccccc1C(=O)OC (stereo not shown) [Example 25, methyl 2-(tetradec-1-en-4-yloxy)benzoate] | aldehydic, metallic, green, citrus
C=CCc1ccc(OCCC=C(C)CCC=C(C)C)c(OC)c1 [Example 61, 4-allyl-1-((4,8-dimethylnona-3,7-dien-1-yl)oxy)-2-methoxybenzene] | spicy
CCC(=O)c1ccccc1OCCC=C(C)CCc1ccccc1 [Example 57, 1-(2-((4-methyl-6-phenylhex-3-en-1-yl)oxy)phenyl)propan-1-one] | wintergreen, salicylate, slightly powdery, vanilla
C=CCC(Oc1ccc(C=O)cc1OCC)c1ccccc1 (stereo not shown) [Example 68, 3-ethoxy-4-((1-phenylbut-3-en-1-yl)oxy)benzaldehyde] | powdery (vanilla), green
CCC=CCC(CCCCCC)Oc1ccc(C=O)cc1OCC (stereo not shown) [Example 44, 4-(dodec-3-en-6-yloxy)-3-ethoxybenzaldehyde] | woody, cedarwood, vanilla
CCOc1cc(C=O)ccc1OC(C)C(C)/C=C/C1CC=C(C)C1(C)C (stereo not shown) [Example 63, (E)-3-ethoxy-4-((3-methyl-5-(2,2,3-trimethylcyclopent-3-en-1-yl)pent-4-en-2-yl)oxy)benzaldehyde] | woody, sandalwoody, hay
CCCCCC[C@@H](C/C=C\CCCCCCCC(=O)OC)Oc1cc(C)c(C(=O)OC)c(O)c1C [Example 3, methyl (S,Z)-2-hydroxy-4-((18-methoxy-18-oxooctadec-9-en-7-yl)oxy)-3,6-dimethylbenzoate] | powdery mossy, evernyl, green, fatty
C=CCC(Oc1ccc(CCC(C)=O)cc1)C(C)=CCC (stereo not shown) [Example 5, 4-(4-((5-methylocta-1,5-dien-4-yl)oxy)phenyl)butan-2-one] | fruity (powdery, sweet, raspberry)

Compound | Odour description
CCOc1cc(C=O)ccc1OC(C)(C)CC=C=C(C)CCC=C(C)C [Example 18, 3-ethoxy-4-((2,6,10-trimethylundeca-4,5,9-trien-2-yl)oxy)benzaldehyde] | vanilla powdery
CCCCCCC(C)=CCCOc1ccc(C=O)cc1OCC [Example 89, 3-ethoxy-4-((4-methyldec-3-en-1-yl)oxy)benzaldehyde] | powdery, vanilla, creamy
C=CCC(CCCCCCCCC)Oc1ccc(C=O)cc1OC (stereo not shown) [Example 35, 3-methoxy-4-(tridec-1-en-4-yloxy)benzaldehyde] | powdery, vanilla, aldehydic, green, metallic, mandarin
CCC=CCC(Oc1ccc(C=O)cc1OCC)C(=O)OCC (stereo not shown) [Example 40, ethyl 2-(2-ethoxy-4-formylphenoxy)hept-4-enoate] | powdery (vanilla)
COC(=O)c1c(C)cc(OCC/C=C(\C)CCC=C(C)C)c(C)c1O [Example 62, methyl (E)-4-((4,8-dimethylnona-3,7-dien-1-yl)oxy)-2-hydroxy-3,6-dimethylbenzoate] | powdery (mossy)
CC/C=C\CCCC/C=C/CCOc1ccc(C=O)cc1OCC [Example 76, 4-(((3E,9Z)-dodeca-3,9-dien-1-yl)oxy)-3-ethoxybenzaldehyde] | green, melon, powdery, vanilla
CC/C=C\C/C=C\CCOc1ccc(CCC(C)=O)cc1 [Example 31, 4-(4-(((3Z,6Z)-nona-3,6-dien-1-yl)oxy)phenyl)butan-2-one] | green, leaf aldehyde, green apple, fruity
CCCCCC(CC=Cc1ccccc1)Oc1ccc(C=O)cc1OCC (stereo not shown) [Example 15, 3-ethoxy-4-((1-phenylnon-1-en-4-yl)oxy)benzaldehyde] | powdery (vanilla)
CCC=CCC(CCCCCCCCC)Oc1ccc(CCC(C)=O)cc1 (stereo not shown) [Example 39, 4-(4-(pentadec-3-en-6-yloxy)phenyl)butan-2-one] | raspberry, mandarin, citrus, aldehydic, fresh
CC/C=C\CCCC/C=C/CCOc1cc(C)c(C(=O)OC)c(O)c1C [Example 77, methyl 4-(((3E,9Z)-dodeca-3,9-dien-1-yl)oxy)-2-hydroxy-3,6-dimethylbenzoate] | powdery, oakmoss
C=CCC(Oc1ccc(C=O)cc1OCC)C(C)=CCC (stereo not shown) [Example 11, 3-ethoxy-4-((5-methylocta-1,5-dien-4-yl)oxy)benzaldehyde] | powdery (vanilla)
CC/C=C\C/C=C\CCOc1ccc2ccccc2c1 [Example 33, 2-(((3Z,6Z)-nona-3,6-dien-1-yl)oxy)naphthalene] | weak, green, leaf aldehyde
C=CCC(C/C=C\CC)Oc1ccc(C=CC)cc1OC (stereo not shown) [Example 13, 2-methoxy-1-(((Z)-nona-1,6-dien-4-yl)oxy)-4-(prop-1-en-1-yl)benzene] | creamy, vanilla
CCOc1cc(C=O)ccc1OCCC=CCCc1ccccc1 [Example 85, 3-ethoxy-4-((6-phenylhex-3-en-1-yl)oxy)benzaldehyde] | powdery, vanilla, creamy, balsamic, cinnamic
CCOc1cc(C=O)ccc1OCCC=C(C)c1ccc(OC)cc1 [Example 49, 3-ethoxy-4-((4-(4-methoxyphenyl)pent-3-en-1-yl)oxy)benzaldehyde] | sweet, powdery, vanilla, ice cream, soft anisic, heliotropine, anethiol
C=CCC(CCCCCC)Oc1cc(C)c(C(=O)OC)c(O)c1C (stereo not shown) [Example 24, methyl 4-(dec-1-en-4-yloxy)-2-hydroxy-3,6-dimethylbenzoate] | powdery (mossy, evernyl)
CCOc1cc(C=O)ccc1OCC/C=C(\C)c1ccc2ccccc2c1 [Example 51, (E)-3-ethoxy-4-((4-(naphthalen-2-yl)pent-3-en-1-yl)oxy)benzaldehyde] | powdery, vanilla, ice cream, floral, neroli, orange flower, baby cologne, madeleine, fougassette
C=CCC(CCCCCCCCC)Oc1ccc(COC)cc1OCC (stereo not shown) [Example 37, 2-ethoxy-4-(methoxymethyl)-1-(tridec-1-en-4-yloxy)benzene] | citrus, mandarin, green
CC/C=C\C/C=C\CCOc1ccc(C=O)cc1OC [Example 34, 3-methoxy-4-(((3Z,6Z)-nona-3,6-dien-1-yl)oxy)benzaldehyde] | green, leaf aldehyde, powdery, vanilla
CCOc1cc(C=O)ccc1OCCC=C(C)CCC=C(C)C [Example 60, 4-((4,8-dimethylnona-3,7-dien-1-yl)oxy)-3-ethoxybenzaldehyde] | gourmand (vanilla, rhum, vanilla bean) sweet (vanilla)
CC/C=C\C/C=C\CCOc1ccccc1OC [Example 32, 1-methoxy-2-(((3Z,6Z)-nona-3,6-dien-1-yl)oxy)benzene] | green, leaf aldehyde
CCOc1cc(C=O)ccc1OCCC=C(C)CCCc1ccccc1 [Example 58, 3-ethoxy-4-((4-methyl-7-phenylhept-3-en-1-yl)oxy)benzaldehyde] | powdery, vanilla, creamy, chocolate
CCOc1cc(C=O)ccc1OCC/C=C(\C)CC/C=C(\C)CCC=C(C)C [Example 20, 3-ethoxy-4-(((3E,7E)-4,8,12-trimethyltrideca-3,7,11-trien-1-yl)oxy)benzaldehyde] | vanilla (powdery, creamy, chocolate, gourmand)
